Reference: paper PMC12751141, “Disrupting α-Synuclein–ClpP interaction restores mitochondrial function and attenuates neuropathology in Parkinson’s disease models” (Molecular Neurodegeneration, 2025)
“Also recorded” adds a separate entry of the source.

Tests used:
[1] = system: ClpP (SH-SY5Y cells); experiment: ClpP protein level, western blot, SH-SY5Y cells; format: cell-based
[2] = system: αSyn oligomerization (VN/VC-αSyn), SH-SY5Y cells; experiment: BiFC split-Venus αSyn oligomerization in SH-SY5Y cells; format: cell-based
Source text: To construct truncated-αSyn plasmids, pcDNA3.1(-) was digested with BsteII and XbaI, and ΔN-, ΔC- and ΔNAC-αSyn was PCR-amplified using self-designed primers and inserted into the plasmid backbone. Cells were transfected with TransIT-2020 (Mirus Bio, LLC) following the manufacturer’s protocol.
(§1) The bimolecular fluorescence was examined 24-hour after transfection (n = 3, one-way ANOVA with Tukey’s post-hoc test, scale bar = 30 μm). (D) Quantification of the concentration (ng/ml) of extracellular αSyn monomer and oligomer, and intracellular αSyn oligomer in Tet-inducible SH-SY5Y cells that were pre-treated with TAT or CS2 peptide 30-minute before adding doxycycline (Dox) to induce αSyn expression. The concentration of αSyn species was determined by ELISA (n = 4, one-way ANOVA with Tukey’s post-hoc test; data are mean ± SEM). (E) Representative images of Mito-SOX staining in SH-SY5Y cells that were pre-treated with TAT or CS2 peptide and transfected with split Venus-αSyn vectors. Mitochondrial ROS production was determined by Mito-SOX staining after 24-hour transfection (n = 4, two-tailed Student’s t test, scale bar = 30 μm).
The bimolecular fluorescence was examined 24-hour after the transfection and quantitated (n = 14 areas/group, one-way ANOVA with Tukey’s post-hoc test, data are mean ± SEM).

[3] = system: αSyn oligomer; experiment: αSyn oligomer ELISA, Tet-inducible αSyn SH-SY5Y cells; format: cell-based, human; details: 10 µM, two days, vs TAT, n = 4
Description: After one day incubation with doxycycline (1µM), αSyn tet-on inducible expression SHSY5Y cells were treated with TAT or CS2 peptides at 10 µM for another two days. The level of αSyn monomer released into culture medium was measured using LEGEND MAX human αSyn ELISA kit (448607, Biolegend). The level of extracellular and intracellular αSyn oligomers was measured using human alpha synuclein oligomer ELISA kit (MBS730762, Mybioresource).

[4] = system: SH-SY5Y cells; experiment: Mitochondrial ROS (Mito-SOX) in SH-SY5Y cells; format: cell-based
Description: Cells cultured on coverslips or 24-well plates were washed with DPBS and then incubated with 5 µM Mito-SOX™ Red (Invitrogen, M36008), a mitochondrial superoxide indicator, for 10 min at 37 °C. For cells cultured on coverslips, the images were visualized by microscope, and quantification of images was then carried out using NIH ImageJ software. At least 100 cells per group were counted in the analysis.
as §1

[5] = system: mThy1-hSNCA mice (substantia nigra / midbrain); experiment: Brain immunostaining / immunohistochemistry in mThy1-hSNCA mice; format: in vivo, mouse; details: 3 mg/kg/day s.c.
Description: C57BL/6 N-Tg (Thy1-SNCA)15Mjff/J (JAX: 017682) breeders (C57Bl/6NJ genetic background) were purchased from Jackson Laboratories. The mice were mated, bred, and genotyped in the animal facility of Case Western Reserve University. All mice were maintained at a 12-hour light/dark cycle (on 6 am, off 6 pm). All randomization and peptide treatments in mThy1-hSNCA mice were prepared by an experimenter not associated with the behavioral and neuropathology analysis. Only male mice were used in the study. mThy1-hSNCA transgenic mice and their age-matched WT littermates were implanted with a 28-day subcutaneous osmotic pump (Alzet, Cupertino CA, Model 2004) containing either TAT control peptide or CS2 peptide, which delivered the peptides at indicated rate (1 or 3 or 10 mg/kg/day). The pump was replaced once every four weeks. All mice were sacrificed at age of 10-month for neuropathology assessment.
For immunofluorescence staining of mouse brain sections, mice were deeply anesthetized and transcardially perfused with 4% paraformaldehyde in PBS. Brain sections were washed in PBS 3 times and subjected for antigen retrieval in 0.01 M sodium citrate buffer with 0.05% TWEEN-20, followed by permeation with 0.2% Triton X-100 in PBS at room temperature for 10 min. Sections were then blocked with 10% normal goat serum in PBS and incubated with primary antibodies overnight at 4 °C and then stained with secondary antibodies. Images of the staining were acquired using Fluoview (FV3000) confocal microscope (Olympus).
Frozen brain sections (20 μm, coronal) were washed in PBS 3 times and subjected for antigen retrieval in 0.01 M sodium citrate buffer with 0.05% TWEEN-20. After washing 3 times in TBS, sections were then incubated in 3%H2O2/w methanol for 30 min at room temperature to quench endogenous peroxidase. After washing in TBS, sections were blocked in 10% normal goat serum with 1XTBST for one hour at room temperature and incubated with anti-pS129-αSyn (ab51253, clone EP1536Y, abcam) or anti- αSyn aggregates (MABN389, clone 5G4, Millipore) antibody in TBST overnight. Secondary antibody and DAB staining were provided by the IHC Select HRP/DAB kit (DAB150, Millipore). Hematoxylin QS (H-3404, Vector laboratory) was used to stain nucleus. The intensity of αSyn was conducted using Fiji ImageJ software. The same image exposure times and threshold settings were used for all sections from all treatment groups. Quantitation was performed blinded to the experimental groups.
Fig. 7 CS2 treatment is protective in mThy1-hSNCA mouse model of PD. (A) Experimental schematic of CS2 treatment in mThy1-hSNCA (Thy1) mouse model of PD: TAT or CS2 peptide was administered (3 mg/kg/day) via subcutaneous osmotic pump (O.P.) in Thy1 mice and their wild-type (WT) littermates starting from age of 4-month till 10-month. […] (D) Representative images of pS129-αSyn staining in substantia nigra of WT and Thy1 mice treated with TAT or CS2 peptide (scale bar = 100 μm). […] (G) Representative images of ClpP and tyrosine […] (TH) staining on the brain coronal sections from TAT or CS2-treated Thy1 mice and their WT littermates (scale bar = 100 μm). […] (H) Representative images of IBA1 and GFAP staining in the midbrain of TAT or CS2 treated Thy1 mice and their WT littermates (SN: substantia nigra) (scale bar = 180 μm).
(B) Representative images of αSyn aggregates staining (5G4) in substantia nigra of TAT or CS2 treated Thy1 mice (scale bar = 40µm).

[6] = midbrain, mThy1-hSNCA, n = 3 mice/group

## CC(C)[C@H](NC(=O)CNC(=O)CNC(=O)CCCCCNC(=O)[C@H](CCCNC(=N)N)NC(=O)[C@H](CCCNC(=N)N)NC(=O)[C@H](CCCNC(=N)N)NC(=O)[C@H](CCC(N)=O)NC(=O)[C@H](CCCNC(=N)N)NC(=O)[C@H](CCCNC(=N)N)NC(=O)[C@H](CCCCN)NC(=O)[C@H](CCCCN)NC(=O)[C@H](CCCNC(=N)N)NC(=O)CNC(=O)[C@@H](N)Cc1ccc(O)cc1)C(=O)N[C@H](C(=O)N[C@H](C(=O)N[C@@H](C)C(=O)O)[C@@H](C)O)C(C)C [CS2, TAT-C6-GGVVTA]
[1]; Tet-inducible αSyn-expressing SH-SY5Y, vs TAT, n = 3
  ClpP level, Tet-inducible αSyn SH-SY5Y: marked increase in ClpP levels
[1]; WT or A53T αSyn overexpression, 30 min pretreatment, n = 4–5 (CS1: n = 4)
  ClpP protein level, SH-SY5Y: significantly restored ClpP protein levels
[2]; ClpPsh SH-SY5Y, effect of reducing αSyn oligomerization, n = 14 areas/group
  αSyn oligomerization, ClpP-deficient cells: no protective effect; also recorded: not observed in ClpP-deficient cells
[2]; SH-SY5Y expressing VN/VC-αSyn, 24-hour after transfection
  BiFC signal / αSyn oligomerization: significantly reduced BiFC signal intensity
[2]; SH-SY5Y expressing VN/VC-αSyn, pretreatment, 24-hour after transfection, n = 3, read-out: IC50, BiFC αSyn oligomer formation
  IC50: ~2500 nM
[3]
  extracellular αSyn oligomer: decreased levels
  intracellular αSyn oligomer: decreased levels
[4]; ClpPsh SH-SY5Y overexpressing αSyn, effect of reducing ROS, n = 13 areas/group
  mitochondrial ROS, ClpP-deficient cells: no protective effect; also recorded: not observed in ClpP-deficient cells
[4]; SH-SY5Y expressing VN/VC-αSyn (CS1: WT αSyn), Mito-SOX 5 µM, vs TAT
  mitochondrial ROS (Mito-SOX intensity): significant reduction of the fluorescence intensity of Mito-SOX
[5]; TH+ neurons, immunostaining, n = 3 mice/group
  ClpP level in midbrain DA neurons: restored by CS2
[5]; WT mice
  IBA1 and GFAP in WT mice: no effect in WT mice
[5]; [6]
  GFAP (astrocyte) intensity: significantly attenuated both markers
  IBA1 (microglia) intensity: significantly attenuated both markers
[5]; n = 3 mice/group
  pS129-αSyn accumulation in SN: reduced by CS2 treatment
  αSyn aggregates in SN (5G4): reduced by CS2 treatment
